In patent US7129243B2, “Peptide compounds” (Astellas Pharma Inc., priority 2001, dated 2006):

System: production of nitric oxide in murine macrophage cell line RAW264.7
Test: Assay for inhibitory activity on the production of nitric oxide
Assay type: cell-based
Conditions: Mus musculus; test compound 10^−6 M; RAW264.7 cells activated with LPS (1 μg/ml) and INF γ (3 u/ml) for 18–24 hours; NO2^− by Griess reagent
Experimental: The murine macrophage cell line RAW264.7 (American Type Culture Collection, No. TIB71) was used in this study. RAW264.7 cells were grown on […] plastic culture flasks at 37° C., 5% in Dulbecco's modified Eagle's medium (DMEM) supplemented with L-glutamine, penicillin, streptomycin and 10% heat-inactivated fetal bovine serum. They were removed from culture flasks by rubber cell scraper and were centrifuged and resuspended in DEM without phenol red. They were plated in 96-well microtiter plates (10^5 cells per well) and allowed to adhere over 2 hours. The test samples were added and the cells were preincubated for 1 hour. Thereafter the cells were activated with both of lipopolysaccharide (LPS) (1 μg/ml) and interferon γ (INF γ) (3 u/ml) for 18-24 hours. An equal volume of Griess reagent (1% sulfanilamide/0.1% N-naphthylethylenediamine dihydrochloride/2.5% H3PO4) was added and the cells were incubated at room temperature for 10 minutes. The absorbance was read at 570 nm using microplate reader and NO2^- was measured using NaNO2 as a standard.

| Compound | inhibition at 1 µM [%] |
| --- | --- |
| O=C(N[C@@H](Cc1ccccn1)C(=O)NCC(=O)N1CCC(Oc2nccs2)CC1)c1cc2cc(Cl)ccc2o1 [Compound (a), 5-Chloro-N-[(1S)-2-oxo-2-({2-oxo-2-[4-(1,3-thiazol-2-yloxy)-1-piperidinyl]ethyl}amino)-1-(2-pyridylmethyl)ethyl]-1-benzofuran-2-carboxamide] | 100 |
| O=C(/C=C/c1ccc(Cl)cc1)N[C@@H](Cc1ccccn1)C(=O)NCC(=O)N1CCC(Oc2cnccn2)CC1 [Compound (b), (2E)-3-(4-Chlorophenyl)-N-[(1S)-2-oxo-2-({2-oxo-2-[4-(2-pyrazinyloxy)-1-piperidinyl]ethyl}amino)-1-(2-pyridylmethyl)ethyl]acrylamide] | 97.6 |
| COc1cccc(OC2CCN(C(=O)CNC(=O)[C@H](Cc3ccccn3)NC(=O)c3cc4cc(Cl)ccc4o3)CC2)n1 [Compound (c), 5-Chloro-N-[(1S)-2-[(2-{4-[(6-methoxy-2-pyridyl)oxy]-1-piperidinyl}-2-oxoethyl)amino]-2-oxo-1-(2-pyridylmethyl)ethyl]-1-benzofuran-2-carboxamide] | 100 |
| O=C(N[C@@H](Cc1ccccn1)C(=O)NCC(=O)N1CCC(Oc2ccccn2)CC1)c1cc2cc(Cl)ccc2o1 [Compound (d), 5-Chloro-N-[(1S)-2-oxo-2-({2-oxo-2-[4-(2-pyridyloxy)-1-piperidinyl]ethyl}amino)-1-(2-pyridylmethyl)ethyl]-1-benzofuran-2-carboxamide] | 100 |
| O=C(/C=C/c1ccc(Cl)cc1)N[C@@H](Cc1ccccn1)C(=O)NCC(=O)N1CCC(Oc2ccccc2)CC1 [Compound (e), (2E)-3-(4-Chlorophenyl)-N-[(1S)-2-oxo-2-{[2-oxo-2-(4-phenoxy-1-piperidinyl)ethyl]amino}-1-(2-pyridylmethyl)ethyl]-acrylamide] | 100 |
| O=C(N[C@@H](Cc1ccccn1)C(=O)NCC(=O)N1CCC(OCC(F)(F)F)CC1)c1cc2cc(Cl)ccc2o1 [Compound (f), 5-Chloro-N-[(1S)-2-oxo-2-({2-oxo-2-[4-(2,2,2-trifluoroethoxy)-1-piperidinyl]ethyl}amino)-1-(2-pyridylmethyl)-ethyl]-1-benzofuran-2-carboxamide] | 100 |
| CC(C)OC1CCN(C(=O)CNC(=O)[C@H](Cc2ccccn2)NC(=O)/C=C/c2ccc(Cl)cc2)CC1 [Compound (g), (2E)-3-(4-Chlorophenyl)-N-[(1S)-2-{[2-(4-isopropoxy-1-piperidinyl)-2-oxoethyl]amino}-2-oxo-1-(2-pyridylmethyl)ethyl]acrylamide] | 100 |
